# Columns and labels:
# [1] = system: Tg4510 mice; test: Neuronal counts in CA1 and CA3 regions of hippocampus (stereology) in Tg4510 mice; type: in vivo, mouse; conditions: Tg4510 mice at 5.5 months
# Method: Mice were euthanized by cervical dislocation at 5. 5 months followed by decapitation. Brains were immediately removed and divided down the midline into two hemispheres. The right hemisphere was placed into 20 mL of 4% paraformaldehyde (prepared fresh on the day of sacrifice) and stored overnight at 4° C. The following day, the brains were transferred to a tube containing 20 mL TBS (pH 7.4, 20 mM TRIS, 100 mM NaCl) and then stored at 4° C. until processing. Right hemispheres were embedded in paraffin, sectioned at 5 microns, and mounted on positively charged glass slides. The slides were dried overnight in a 60° C. oven and stored at room temperature until stained. The left hemispheres were frozen (within 2 minutes) on dry ice.
# Nissl stained slides were scanned and digitized using the Aperio ScanScope (Aperio Technologies, Inc., Vista, Calif.). Images of the entire brain section were captured at high resolution and stored as files within Spectrum (Aperio software). To process images, a region of 4,000×4,000 pixels including the entire hippocampus was captured using the extract tool and saved as a JPEG file for importing into Metamorph (Molecular Devices, Sunnyvale, Calif.) for quantification of cell loss within the CA1 and CA3 regions of the hippocampus. A modified version of the single section dissector method (Moller et al. 1990) was utilized to quantify cell loss because of its suitability for thin, paraffin-embedded tissue sections. To obtain relative numbers of cells, every fifth section was collected as the paraffin-embedded brains were cut sagitally between the Bregma and approximately 0.75 mm laterally. Three regions were drawn and counted per section using Metamorph software. The same regions were used for every image and 5 sections were counted per animal, 5 slides apart. Statistics were performed using ANOVA followed by Dunnett's post-hoc test.
# Previous studies had shown that Tg4510 mice lost about 60% of their neurons in the CA1 region of the hippocampus at 5.5 months (Santacruz et al. 2005). […]
# [2] = Plasma, brain and liver levels after bolus IV administration in nude mice; conditions: bolus IV 5 mpk; for concentration at 6 h / concentration at 24 h: nude, mouse, in vivo, iv, 5 mg/kg
smiles,measurement,setting,value
"C/C1=C/C[C@@H](/C(C)=C/c2csc(C)n2)OC(=O)C[C@H](O)C(C)(C)C(=O)[C@H](C)[C@@H](O)[C@@H](C)CCC1 [Epothilone D, epothilone D]",CA3 total cell count,"[1]; 1 mpk IP weekly, vs vehicle",significant differences between the 1 mpk and non-transgenic mice compared to vehicle treated mice
same,CA1 neuronal count,"[1]; 1 mpk IP weekly, vs vehicle, p<0.01",substantially more CA1 neurons than vehicle-treated animals
same,CA1 neuronal count,[1]; 10 mpk IP weekly,intermediate between the vehicle-treated mice and the mice treated with 1 mpk
same,brain levels versus liver levels,[2]; 6 and 24 h after dosing,high brain levels that exceeded liver levels
same,concentration at 6 h,[2]; Brain conc,2790 nM
same,concentration at 24 h,[2]; Brain conc,2050 nM
same,concentration at 6 h,[2]; Plasma conc,6 nM
same,concentration at 24 h,[2]; Plasma conc,1 nM

# — US8673949B2 (Bristol-Myers Squibb Company, priority 2008, dated 2014)
